Test results taken from paper PMC2685987, “Integrating Statistical Predictions and Experimental Verifications for Enhancing Protein-Chemical Interaction Predictions in Virtual Screening” (PLoS Computational Biology, 2009).

Target: T1, MBP-ARC (Maltose Binding Protein tagged Androgen Receptor C-termini) (Homo sapiens, UniProt P10275)
T1 construct: made in house; host or cells: E. coli DH5a
T1 sequence (P10275 609-919): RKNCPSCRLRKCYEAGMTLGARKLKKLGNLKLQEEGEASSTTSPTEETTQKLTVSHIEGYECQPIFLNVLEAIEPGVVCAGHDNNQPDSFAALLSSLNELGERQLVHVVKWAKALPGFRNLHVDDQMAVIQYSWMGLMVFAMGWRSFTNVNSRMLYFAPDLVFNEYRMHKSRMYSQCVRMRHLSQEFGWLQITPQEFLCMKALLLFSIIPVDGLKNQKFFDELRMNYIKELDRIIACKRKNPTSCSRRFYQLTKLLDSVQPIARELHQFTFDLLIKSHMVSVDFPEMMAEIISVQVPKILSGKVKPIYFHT
Assay: in vitro binding assay - hydroxyapatite method ([3H]-DHT competition)
Settings: concentration of unlabeled test compound at which 50% of the [3H]-DHT is still bound to MBP-ARC; 2 nM [3H]-DHT, 50 µg/ml MBP-ARC, three hours
Experimental: 1.9 The in vitro binding assay - hydroxyapatite method
800 mM NaCl, 10 % glycerol, 1mg/ml BSA and 2mM DTT to obtain a 100 l mixture solution.
mixture solution was incubated at 4 for 3 hours.
After incubation, BioGel HT (Bio-Rad Laboratories) was added to the solution and incubated on ice
for 15 minutes, during which vortexing was done every 5 minutes. The incubated solution was centrifuged
at 1,000 rpm for a minute and a supernatant was removed.
A wash buﬀer consisting of 40 mM Tris-HCl pH 7.6, 100 mM KCl, 1mM EDTA and 1mM EGTA and
cooled on ice was added to the precipitate by 1 ml and mixed. The produced solution was centrifuged
at 1,000 rpm and a supernatant was removed. This process was repeated three times.
The collected precipitate was suspended in 3 ml Aquasol (New England nuclear Corp.). Radioactivity
of the suspended solution in a scintillation vial (Perkin Elmer) was measured by a liquid scintillation
test compounds was regarded as IC50 of the test compound.

IC50: 80 µM
Structure (SMILES): Cc1c(-c2ccc(NC(=O)C(C)(C)C)cc2)nc2ccc(Cl)cn12 [T5853872]
